From patent US9555071B2, “Methods and compositions for the treatment of axonal and neuronal degeneration” (priority 2012, dated 2017)

Assays:
[1] = tested on: postnatal (P4-5) dorsal root ganglion (DRG) and cerebrocortical neurons; experiment: Prevention of axonal/neuronal death in cultured neurons; format: cell-based; conditions: in vitro; peptides in linear as well as cyclo forms; FIG. 1
Protocol: Several small RGD peptides containing RGD sequence were generated and their axonal protective effect was tested. The RGD peptides included RGDYK (SEQ ID NO:1), GRGDS (SEQ ID NO:2), FRGDLG (SEQ ID NO:4), FRGDSP (SEQ ID NO:9), IRGDSP (SEQ ID NO:15), RRGDQT (SEQ ID NO:5), KRGDNF (SEQ ID NO:6), PRGDLT (SEQ ID NO:7) in linear as well as cyclo forms.

[2] = tested on: acrylamide intoxicated MAG−/− mice; experiment: Acrylamide-induced axonal degeneration in MAG−/− mice; format: in vivo; conditions: for severe gait instability / axonal swelling, beading and segmentation of Aβ fibers in the skin / neuromuscular junction morphology: daily intraperitoneal injection; for severe gait instability: acrylamide for 10 days; for axonal swelling, beading and segmentation of Aβ fibers in the skin / neuromuscular junction morphology: acrylamide, FIG. 2E; for change in amplitudes of CMAP: electrophysiological testing, FIG. 2D
Description: Furthermore, the RGD peptides can also prevent axonal and/or neuronal degeneration in vivo. See Example 3. Administration of acrylamide, a well characterized toxin, causes axonal “dying back” or degeneration without lymphocytic inflammatory response (Schaumburg et al., 1974, Ko et al., 2000; Ewaleifoh et al, 2012) in wild-type and MAG knockout mice. […] The acrylamide treated MAG−/− mice developed more rapid and severe motor impairment. Most mice fell off the rod even during pretraining and had profound decline in the retention time on the Rotarod (FIG. 2B). There was a decrease in amplitudes of CMAP (FIG. 2.D). […] The neuromuscular junction morphology was normal. On gross observation, there was only mild gait unsteadiness. […] Thus, the RGD peptide was able to prevent significant axonal degeneration that is typically seen in MAG−/− mice treated with acrylamide.
To test that RGD peptides may prevent axonal degeneration in a murine model, acrylamide, a well characterized toxin causing axonal “dying back” or degeneration without lymphocytic inflammatory response (Schaumburg et al., 1974, Ko et al., 2000, Ewaleifoh et at, 2012), was administered to wild-type and MAG−/− mice. When MAG knockout mice at 6 weeks of age were exposed to acrylamide for 10 days, there was markedly impaired gait with marked sensory ataxia and spreading of the toes of the hind limbs. The acrylamide treated MAG−/− mice developed more rapid and severe motor impairment. Most mice fell off the rod even during pretraining and had profound decline in the retention time on the Rotarod (FIG. 2B). There was a 68% decrease in amplitudes of CMAP (FIG. 2.D).
The neuromuscular junction morphology was normal (FIG. 2E). On gross observation, there was only mild gait unsteadiness.

β1-integrin receptor = experiment: Blocking of the peptide's axonal protection by integrin antagonists; format: cell-based
Description: The RGD motif is known to bind to the integrin receptor. The addition of the peptides of the present invention to primary DRG neuronal cultures induced rapid phosphorylation of neurofilament (NFH), change in NAD synthase nicotinamide mononucleotide adenylyltransferase (NMNAT) expression, and focal adhesion kinase (FAK), an integrin-linked kinase, at the tyrosine 397 residue (Y397), which are indicative of integrin binding to a ligand. Co-administration of echistatin or specific function-blocking antibody to β1-integrin abolished the axonal/neuronal protective ability of the peptide. See Example 1.
The protective effect of the […] peptides was dependent upon their ability to bind to β1-integrin receptor. […] Co-administration of specific function-blocking antibody to β1-integrin abolished the axonal protective ability of the GRGDSP (SEQ ID NO:3) peptide.

[3] = tested on: Streptozotocin-induced diabetic mouse model; experiment: Streptozotocin-induced diabetic mouse model; format: in vivo; conditions: intravenous or intraperitoneal daily injection
Description: (§1) Similar findings were also seen in other murine models such as Trembler J mice, a murine model of Charcot-Marie-Tooth type 1, MOG-EAE mice, model of multiple sclerosis with significant axonal loss, and Streptozotocin-induced diabetic mouse model. […] Application of the RGD peptide allowed the diseased mice to have a normal or near normal phenotype similar to untreated wild-type animals.
as §1, with “including (1)” for “such as”, “1, (2)” for “1,”, “and (3)” for “and”, “The” for “Application of the”

Trembler J mice = experiment: Trembler J mice, model of Charcot-Marie-Tooth type 1; format: in vivo; conditions: intravenous or intraperitoneal daily injection
Description: as §1
as §1, with “including (1)” for “such as”, “1, (2)” for “1,”, “and (3)” for “and”, “The” for “Application of the”

MOG-EAE mice = experiment: MOG-EAE mice, model of multiple sclerosis; format: in vivo; conditions: intravenous or intraperitoneal daily injection
Description: as §1
as §1, with “including (1)” for “such as”, “1, (2)” for “1,”, “and (3)” for “and”, “The” for “Application of the”

[4] = tested on: dorsal root ganglion (DRG) explants; experiment: Axonal protection of DRG explants exposed to vincristine; format: cell-based
Protocol: Panels A to D are representative images of dorsal root ganglion (DRG) explants after exposure to 50 nM vincristine at 0 and 60 hours. Explants in panels A and B were treated with 50 nM vincristine and 0.5 μg/ml peptide while those in panels C and D were treated with vincristine alone.
DRG explants were exposed to 50 nM vincristine. Explants in panels A and B were treated with 50 nM vincristine and 0.5 μg/ml RGD peptide while those in panels C and D were treated with vincristine alone. […] The cyclo-GRGDSP (SEQ ID NO:3) peptide potently promoted axonal survival in cell culture with EC50=0.5 μM (FIG. 1.E).

[5] = Bioavailability and bio-distribution by LC-QTOF mass spectrometer; format: in vivo, C57B1 mice; conditions: intraperitoneal 1 μg/g
Protocol: In contrast, there was no decrease with the co-administration of the peptide (n=10 mice).
To test the bioavailability and bio-distribution of the RGD peptides in vivo, C57B1 mice were given intraperitoneal injection of 1 μg/g weight of cylco-GRGDSP (SEQ ID NO:3) in normal saline (1 mg/ml). The mice were sacrificed at 30, 60, 120, and 240 minutes. Blood, brain, skin, muscle, and tibial and sciatic nerves were collected. The presence of the peptide was detected using LC-QTOF mass spectrometer.

axons = conditions: insults such as vincristine, acrylamide, inflammatory mediators; Nguyen et al., 2009; cited from earlier work
[6] = sampled 30, 60, 120, 240 minutes

GRGDS: RGD peptide, amino acid sequence GRGDS (Synthetic Peptide, Linear or Cyclo)
stabilize the axon and prevent axonal/neuronal death [1]: sufficient to stabilize the axon and to prevent axonal/neuronal death

cyclo-FRGDLP: cyclic RGD peptide of sequence FRGDLP (SEQ ID NO:8) (cyclic; Synthetic Peptide, Linear or Cyclo)
severe gait instability [2]: largely prevented | axonal swelling, beading and segmentation of Aβ fibers in the skin [2]: largely prevented | neuromuscular junction morphology [2]: normal | change in amplitudes of CMAP [2]: little to no change

FRGDLG: RGD peptide, amino acid sequence FRGDLG (Synthetic Peptide, Linear or Cyclo)
stabilize the axon and prevent axonal/neuronal death [1]: sufficient to stabilize the axon and to prevent axonal/neuronal death

RGDYK: RGD peptide, amino acid sequence RGDYK (Synthetic Peptide, Linear or Cyclo)
stabilize the axon and prevent axonal/neuronal death [1]: sufficient to stabilize the axon and to prevent axonal/neuronal death

GRGDSP: RGD peptide, amino acid sequence GRGDSP
axonal protective ability of the peptide (β1-integrin receptor; co-administration of specific function-blocking antibody to β1-integrin): abolished

RRGDQT: RGD peptide, amino acid sequence RRGDQT (Synthetic Peptide, Linear or Cyclo)
stabilize the axon and prevent axonal/neuronal death [1]: sufficient to stabilize the axon and to prevent axonal/neuronal death

IRGDSP: RGD peptide, amino acid sequence IRGDSP (Synthetic Peptide, Linear or Cyclo)
stabilize the axon and prevent axonal/neuronal death [1]: sufficient to stabilize the axon and to prevent axonal/neuronal death

cyclo-FRGDSP: cyclic RGD peptide of sequence FRGDSP (SEQ ID NO:9) (cyclic; Synthetic Peptide, Linear or Cyclo)
severe gait instability [2]: largely prevented | axonal swelling, beading and segmentation of Aβ fibers in the skin [2]: largely prevented | neuromuscular junction morphology [2]: normal | change in amplitudes of CMAP [2]: little to no change

echistatin [reference compound]
effect of co-administered blocker on axonal/neuronal protective ability of the peptide (β1-integrin receptor; co-administration with RGD peptide): abolished

PRGDLT: RGD peptide, amino acid sequence PRGDLT (Synthetic Peptide, Linear or Cyclo)
stabilize the axon and prevent axonal/neuronal death [1]: sufficient to stabilize the axon and to prevent axonal/neuronal death

KRGDNF: RGD peptide, amino acid sequence KRGDNF (Synthetic Peptide, Linear or Cyclo)
stabilize the axon and prevent axonal/neuronal death [1]: sufficient to stabilize the axon and to prevent axonal/neuronal death

FRGDSP: RGD peptide, amino acid sequence FRGDSP (Synthetic Peptide, Linear or Cyclo)
stabilize the axon and prevent axonal/neuronal death [1]: sufficient to stabilize the axon and to prevent axonal/neuronal death

cyclo-IRGDSP: cyclic RGD peptide of sequence IRGDSP (SEQ ID NO:15) (cyclic; Synthetic Peptide, Linear or Cyclo)
axonal/neuronal degeneration and behavioral deficits [3]: almost completely abolished | axonal/neuronal degeneration and behavioral deficits (Trembler J mice): almost completely abolished | axonal/neuronal degeneration and behavioral deficits (MOG-EAE mice): almost completely abolished | severe gait instability [2]: largely prevented | axonal swelling, beading and segmentation of Aβ fibers in the skin [2]: largely prevented | neuromuscular junction morphology [2]: normal | change in amplitudes of CMAP [2]: little to no change

N=C(N)NCCC[C@@H]1NC(=O)CNC(=O)[C@@H]2CCCN2C(=O)[C@H](CO)NC(=O)[C@H](CC(=O)O)NC(=O)CNC1=O [cyclo-GRGDSP]
EC50 ([4]; DRG explants exposed to 50 nM vincristine, FIG. 1E, read-out: EC50, axonal survival in cell culture): 500 nM | neuronal death (TUNEL-positive cells) ([4]; associated with axonal protection, FIG. 1F): marked decreased in neuronal death | axonal/neuronal degeneration and behavioral deficits [3]: almost completely abolished | peptide detected in sciatic nerves ([5]; all time points up to 4 hours, FIG. 2A): detected in high concentration | peptide detected in plasma [5, 6]: detected | peptide levels in brain [5, 6]: only evident in the first hour | axonal/neuronal degeneration and behavioral deficits (Trembler J mice): almost completely abolished | axonal/neuronal degeneration and behavioral deficits (MOG-EAE mice): almost completely abolished | severe gait instability [2]: largely prevented | axonal swelling, beading and segmentation of Aβ fibers in the skin [2]: largely prevented | neuromuscular junction morphology [2]: normal | change in amplitudes of CMAP [2]: little to no change

B1: MAG: transmembrane glycoprotein containing five Ig-like domains; adhesion molecule of the immunoglobin superfamily (protein, UniProt P20916 20-626, looked up)
Myelin-associated glycoprotein: GHWGAWMPSSISAFEGTCVSIPCRFDFPDELRPAVVHGVWYFNSPYPKNYPPVVFKSRTQVVHESFQGRSRLLGDLGLRNCTLLLSNVSPELGGKYYFRGDLGGYNQYTFSEHSVLDIVNTPNIVVPPEVVAGTEVEVSCMVPDNCPELRPELSWLGHEGLGEPAVLGRLREDEGTWVQVSLLHFVPTREANGHRLGCQASFPNTTLQFEGYASMDVKYPPVIVEMNSSVEAIEGSHVSLLCGADSNPPPLLTWMRDGTVLREAVAESLLLELEEVTPAEDGVYACLAENAYGQDNRTVGLSVMYAPWKPTVNGTMVAVEGETVSILCSTQSNPDPILTIFKEKQILSTVIYESELQLELPAVSPEDDGEYWCVAENQYGQRATAFNLSVEFAPVLLLESHCAAARDTVQCLCVVKSNPEPSVAFELPSRNVTVNESEREFVYSERSGLVLTSILTLRGQAQAPPRVICTARNLYGAKSLELPFQGAHRLMWAKIGPVGAVVAFAILIAIVCYITQTRRKKNVTESPSFSAGDNPPVLFSSDFRISGAPEKYESERRLGSERRLLGLRGEPPELDLSYSHSDLGKRPTKDSYTLTEELAEYAEIRVK
axonal survival / prevention of axonal degeneration caused by vincristine (axons): promotes axonal survival
